Source: the supplement of paper PMC10307832

Legend:
Assay in all cases: relative viability (nuclei count vs DMSO), 5 days (fraction); higher = more cells survive
Idelalisib + Olaparib = compound: CC[C@H](Nc1ncnc2[nH]cnc12)c1nc2cccc(F)c2c(=O)n1-c1ccccc1 [Idelalisib] + O=C(c1cc(Cc2n[nH]c(=O)c3ccccc23)ccc1F)N1CCN(C(=O)C2CC2)CC1 [Olaparib] (partner 8 µM)
Procedure, shortened: (§1)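 Relative viability divides the nuclei count in treated wells by that in vehicle wells. Lung cancer cell lines were seeded in 1536-well plates, dosed by pin tool the next day, and fixed and stained after 5 days in one step with final 0.05% Triton X-100, 1% formaldehyde and 1 ug/ml Hoechst. Dosing was a single drug or a fixed anchor-drug dose plus five library-drug doses (not always all listed) in √10 steps, and values are medians of duplicate plates imaged at 4×.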

Pemetrexed + Foretinib = compound: Nc1nc2[nH]cc(CCc3ccc(C(=O)N[C@@H](CCC(=O)O)C(=O)O)cc3)c2c(=O)[nH]1 [Pemetrexed] + COc1cc2c(Oc3ccc(NC(=O)C4(C(=O)Nc5ccc(F)cc5)CC4)cc3F)ccnc2cc1OCCCN1CCOCC1 [Foretinib] (partner 0.25 µM)
Procedure, shortened: as §1

Pemetrexed + Lapatinib = compound: Nc1nc2[nH]cc(CCc3ccc(C(=O)N[C@@H](CCC(=O)O)C(=O)O)cc3)c2c(=O)[nH]1 [Pemetrexed] + CS(=O)(=O)CCNCc1ccc(-c2ccc3ncnc(Nc4ccc(OCc5cccc(F)c5)c(Cl)c4)c3c2)o1 [Lapatinib] (partner 2 µM)
Procedure, shortened: as §1

Pemetrexed + Tozasertib = compound: Nc1nc2[nH]cc(CCc3ccc(C(=O)N[C@@H](CCC(=O)O)C(=O)O)cc3)c2c(=O)[nH]1 [Pemetrexed] + Cc1cc(Nc2cc(N3CCN(C)CC3)nc(Sc3ccc(NC(=O)C4CC4)cc3)n2)n[nH]1 [Tozasertib] (partner 0.1 µM)
Procedure, shortened: as §1

Cell Line | relative viability (Idelalisib + Olaparib; first compound 0.04 µM) | relative viability (Idelalisib + Olaparib; first compound 0.1265 µM) | relative viability (Idelalisib + Olaparib; first compound 0.4 µM) | relative viability (Idelalisib + Olaparib; first compound 1.265 µM) | relative viability (Idelalisib + Olaparib; first compound 4 µM) | relative viability (Pemetrexed + Foretinib; first compound 0.006325 µM) | relative viability (Pemetrexed + Foretinib; first compound 0.02 µM) | relative viability (Pemetrexed + Foretinib; first compound 0.06325 µM) | relative viability (Pemetrexed + Foretinib; first compound 0.2 µM) | relative viability (Pemetrexed + Lapatinib; first compound 0.002 µM) | relative viability (Pemetrexed + Lapatinib; first compound 0.006325 µM) | relative viability (Pemetrexed + Lapatinib; first compound 0.02 µM) | relative viability (Pemetrexed + Lapatinib; first compound 0.06325 µM) | relative viability (Pemetrexed + Lapatinib; first compound 0.2 µM) | relative viability (Pemetrexed + Tozasertib; first compound 0.006325 µM) | relative viability (Pemetrexed + Tozasertib; first compound 0.02 µM) | relative viability (Pemetrexed + Tozasertib; first compound 0.06325 µM) | relative viability (Pemetrexed + Tozasertib; first compound 0.2 µM) | relative viability (Pemetrexed + Foretinib; first compound 0.002 µM) | relative viability (Pemetrexed + Tozasertib; first compound 0.002 µM)
NCI-H1944 | 0.427 | 0.395 | 0.388 | 0.394 | 0.406 | 0.83 | 0.922 | 0.831 | 0.837 | 0.866 | 0.766 | 0.846 | 0.834 | 0.839 | 0.306 | 0.269 | 0.241 | 0.242 | – | –
NCI-H1975 | 0.787 | 0.835 | 0.741 | 0.778 | 0.615 | 0.914 | 1.02 | 0.825 | 0.401 | – | 0.885 | 0.906 | 0.78 | 0.423 | 0.752 | 0.768 | 0.704 | 0.297 | 0.899 | 0.756
NCI-H1993 | 1.16 | 1.07 | 0.866 | 0.915 | 0.791 | 0.838 | 0.74 | 0.774 | 0.811 | 0.863 | 0.887 | 0.869 | 0.754 | 0.665 | 0.46 | 0.523 | 0.615 | 0.506 | 0.806 | 0.68
NCI-H2009 | 0.639 | 0.712 | 0.672 | 0.74 | 0.516 | 1.28 | 1.29 | 1.2 | 1.11 | 0.745 | 0.871 | 0.999 | 0.905 | 0.915 | 0.697 | 0.855 | 0.71 | 0.694 | 1.2 | 0.707
NCI-H2023 | 0.463 | 0.495 | 0.542 | 0.436 | 0.472 | 0.739 | 0.885 | 0.888 | 0.319 | 0.292 | 0.726 | 1.01 | 0.66 | 0.202 | 0.338 | 0.364 | 0.379 | 0.223 | – | 0.245
NCI-H2085 | 0.642 | 0.743 | 0.767 | 0.741 | 0.677 | 0.737 | 1.11 | 0.966 | 1.17 | 0.717 | 0.692 | 0.88 | 0.801 | 0.768 | 0.811 | 0.882 | 0.849 | 0.784 | 1.03 | 0.735
NCI-H2087 | 0.498 | 0.628 | 0.517 | 0.658 | 0.591 | 1.01 | 1.17 | 0.986 | 0.783 | 0.965 | 0.952 | 1.21 | 0.927 | 0.644 | 0.276 | 0.287 | 0.297 | 0.232 | 1.09 | 0.257
NCI-H2126 | 0.933 | 0.916 | 0.834 | 0.972 | 0.898 | 1.19 | 1.29 | 0.565 | 1.03 | 0.75 | 0.747 | 0.789 | 0.747 | 0.739 | 0.845 | 0.875 | 0.775 | 0.643 | 1.02 | 0.711
